Tested on: TFEB
Experiment: TFEB Nuclear Translocation Assay
Format: cell-based
Conditions: read-out: EC50 of TFEB activation

| Structure (SMILES) | EC50 |
| --- | --- |
| CC(C)S(=O)(=O)c1ccc(S(=O)(=O)n2nc(N3CCN(c4ncc(F)cn4)CC34CC4)c3c(Cl)cccc32)cc1F [Compound 62, 4-chloro-1-(3-fluoro-4-isopropylsulfonyl-phenyl) sulfonyl-3-[7-(5-fluoropyrimidin-2-yl)-4,7-diazaspiro [2.5]octan-4-yl]indazole] | ≤ 1000 nM |
| CC(C)S(=O)(=O)n1ccc(S(=O)(=O)n2nc(N3CCC(=O)CC34CC4)c3c(Cl)cc(F)cc32)c1 [Compound 187, 4-[4-chloro-6-fluoro-1-(1-isopropylsulfonylpyrrol-3-yl)sulfonyl-indazol-3-yl]-4-azaspiro [2.5]octan-7-one] | ≤ 1000 nM |
| CC(C)S(=O)(=O)c1ccc(S(=O)(=O)n2nc(N3CCN(C(=O)C(F)(F)F)C[C@@H]3C(F)(F)F)c3c(Cl)cccc32)cc1 [Compound 70, 1-[(3R)-4-[4-chloro-1-(4-isopropylsulfonylphenyl)sulfonyl-indazol-3-yl]-3-(trifluoromethyl)piperazin-1-yl]-2,2,2-trifluoro-ethanone] | ≤ 1000 nM |
| CC(C)(CF)c1ccc(S(=O)(=O)n2nc(N3CCN(c4ncc(F)cn4)CC34CC4)c3c(Cl)cccc32)cc1 [Compound 96, 4-chloro-1-[4-(2-fluoro-1,1-dimethyl-ethyl)phenyl]sulfonyl-3-[7-(5-fluoropyrimidin-2-yl)-4,7-diazaspiro [2.5]octan-4-yl]indazole] | ≤ 1000 nM |
| CC(C)S(=O)(=O)c1ccc(S(=O)(=O)n2nc(N3CCC(Cl)=C[C@@H]3C(F)(F)F)c3c(Cl)cccc32)cc1 [Compound 80, 4-chloro-3-[(6R)-4-chloro-6-(trifluoromethyl)-3,6-dihydro-2H-pyridin-1-yl]-1-(4-isopropylsulfonylphenyl)sulfonyl-indazole] | ≤ 1000 nM |
| O=S(=O)(c1ccc(OC(F)(F)F)cc1)n1nc(N2CCN(c3ncc(F)cn3)CC23CC3)c2c(Cl)cccc21 [Compound 117, 4-chloro-3-[7-(5-fluoropyrimidin-2-yl)-4,7-diazaspiro [2.5]octan-4-yl]-1-[4-(trifluoromethoxy)phenyl]sulfonyl-indazole] | ≤ 1000 nM |
| O=S(=O)(n1nc(N2CCN(c3ncc(F)cn3)CC23CC3)c2c(Cl)cccc21)C12CC(C(F)(F)F)(C1)C2 [Compound 131, 4-chloro-3-[7-(5-fluoropyrimidin-2-yl)-4,7-diazaspiro [2.5]octan-4-yl]-1-[[3-(trifluoromethyl)-1-bicyclo [1.1.1]pentanyl]sulfonyl]indazole] | ≥ 10000 nM |
| CC(C)(C)S(=O)(=O)c1ccc(S(=O)(=O)n2nc(N3CCN(c4ncc(Cl)cn4)CC34CC4)c3c(Cl)cccc32)s1 [Compound 1, 1-[(5-tert-butylsulfonyl-2-thienyl)sulfonyl]-4-chloro-3-[7-(5-chloropyrimidin-2-yl)-4,7-diazaspiro [2.5]octan-4-yl]indazole] | ≤ 1000 nM |
| CC(C)S(=O)(=O)c1ccc(S(=O)(=O)n2nc(N3CCN(c4ncc(F)cn4)CC34CC4)c3c(Cl)cccc32)cc1 [Compound 10, 4-chloro-3-[7-(5-fluoropyrimidin-2-yl)-4,7-diazaspiro [2.5]octan-4-yl]-1-(4-isopropylsulfonylphenyl) sulfonyl-indazole] | ≤ 1000 nM |
| CC(C)S(=O)(=O)c1ccc(S(=O)(=O)n2nc(N3CCC(F)(F)CC3C(F)(F)F)c3c(Cl)cccc32)cc1 (centres unmarked) [Compound 85, 4-chloro-3-[4,4-difluoro-2-(trifluoromethyl)-1-piperidyl]-1-(4-isopropylsulfonylphenyl) sulfonyl-indazole] | ≤ 1000 nM |
| CC(=O)N1CCN(c2nn(S(=O)(=O)c3ccc(S(=O)(=O)C(C)C)cc3)c3cccc(Cl)c23)C2(CC2)C1 [Compound 56, 1-[4-[4-chloro-1-(4-isopropylsulfonylphenyl)sulfonyl-indazol-3-yl]-4,7-diazaspiro[2.5]octan-7-yl]ethanone] | ≤ 1000 nM |
| CC(C)S(=O)(=O)n1ccc(S(=O)(=O)n2nc(N3CCN(c4c(F)cccc4F)CC34CC4)c3c(Cl)cc(F)cc32)c1 [Compound 182, 4-chloro-3-(7-(2,6-difluorophenyl)-4,7-diazaspiro [2.5]octan-4-yl)-6-fluoro-1-((1-(isopropylsulfonyl)-1H-pyrrol-3-yl)sulfonyl)-1H-indazole] | ≤ 1000 nM |
| CC(C)S(=O)(=O)n1ccc(S(=O)(=O)n2nc(N3CCOCC34CC4)c3c(Cl)cc(F)cc32)c1 [Compound 190, 4-[4-chloro-6-fluoro-1-(1-isopropylsulfonylpyrrol-3-yl)sulfonyl-indazol-3-yl]-7-oxa-4-azaspiro [2.5]octane] | ≤ 1000 nM |
| CC(C)S(=N)(=O)c1ccc(S(=O)(=O)n2nc(N3CCN(c4ncc(F)cn4)CC34CC4)c3c(Cl)cccc32)cc1 (centres unmarked) [Compound 58, [4-[4-chloro-3-[7-(5-fluoropyrimidin-2-yl)-4,7-diazaspiro [2.5]octan-4-yl]indazol-1-yl]sulfonylphenyl]-imino-isopropyl-oxo-λ6-sulfane] | ≤ 1000 nM |
| O=S(=O)(c1ccc(SC(F)F)cc1)n1nc(N2CCN(c3ncc(F)cn3)CC23CC3)c2c(Cl)cccc21 [Compound 93, 4-chloro-1-[4-(difluoromethylsulfanyl)phenyl]sulfonyl-3-[7-(5-fluoropyrimidin-2-yl)-4,7-diazaspiro [2.5]octan-4-yl]indazole] | ≤ 1000 nM |
| CC(C)S(=O)(=O)c1ccc(S(=O)(=O)n2nc(N3CCN(C(=O)C(F)F)CC3C(F)(F)F)c3c(Cl)cccc32)cc1 (centres unmarked) [Compound 74, 1-[4-[4-chloro-1-(4-isopropylsulfonylphenyl)sulfonyl-indazol-3-yl]-3-(trifluoromethyl)piperazin-1-yl]-2,2-difluoro-ethanone] | ≤ 1000 nM |
| CC(C)S(=O)(=O)n1ccc(S(=O)(=O)n2nc(N3CCN(c4ncc(F)cn4)CC3(C)C)c3c(Cl)cc(F)cc32)c1 [Compound 185, 4-chloro-6-fluoro-3-[4-(5-fluoropyrimidin-2-yl)-2,2-dimethyl-piperazin-1-yl]-1-(1-isopropylsulfonylpyrrol-3-yl) sulfonyl-indazole] | ≤ 1000 nM |
| CC(C)S(=O)(=O)c1ccc(S(=O)(=O)n2nc(N3CCCCC3C(F)(F)F)c3c(Cl)cccc32)cc1 (centres unmarked) [Compound 66, 4-chloro-1-(4-isopropylsulfonylphenyl)sulfonyl-3-[2-(trifluoromethyl)-1-piperidyl]indazole] | ≤ 1000 nM |
| CC(C)S(=O)(=O)c1ccc(S(=O)(=O)n2nc(N3CCN(c4ncc(Cl)cn4)CC34CC4)c3c(F)cccc32)cc1 [Compound 15, 3-(7-(5-chloropyrimidin-2-yl)-4,7-diazaspiro [2.5]octan-4-yl)-4-fluoro-1-((4-(isopropylsulfonyl)phenyl)sulfonyl)-1H-indazole] | ≤ 1000 nM |
| CC(C)S(=O)(=O)c1ccc(S(=O)(=O)n2nc(N3CCN(c4ncc(F)cn4)CC34CC4)c3c(F)cccc32)cc1 [Compound 16, 4-fluoro-3-(7-(5-fluoropyrimidin-2-yl)-4,7-diazaspiro [2.5]octan-4-yl)-1-((4-(isopropylsulfonyl)phenyl)sulfonyl)-1H-indazole] | ≤ 1000 nM |
| CC(C)S(=O)(=O)c1ccc(S(=O)(=O)n2nc(N3CCN(c4ncc(Cl)cn4)CC34CC4)c3c(Cl)cccc32)cc1 [Compound 2, 4-chloro-3-(7-(5-chloropyrimidin-2-yl)-4,7-diazaspiro [2.5]octan-4-yl)-1-((4-(isopropylsulfonyl)phenyl)sulfonyl)-1H-indazole] | ≤ 1000 nM |
| CC(F)(F)c1ccc(S(=O)(=O)n2nc(N3CCN(c4ccc(F)cc4Cl)CC34CC4)c3c(Cl)cccc32)cc1 [Compound 125, 4-chloro-3-(7-(2-chloro-4-fluorophenyl)-4,7-diazaspiro [2.5]octan-4-yl)-1-((4-(1,1-difluoroethyl)phenyl)sulfonyl)-1H-indazole] | ≤ 1000 nM |
| CC(C)S(=O)(=O)n1ccc(S(=O)(=O)n2nc(N3CCN(c4ncc(F)cc4F)CC34CC4)c3c(Cl)cc(F)cc32)c1 [Compound 158, 4-chloro-3-[7-(3,5-difluoro-2-pyridyl)-4,7-diazaspiro [2.5]octan-4-yl]-6-fluoro-1-(1-isopropylsulfonylpyrrol-3-yl) sulfonyl-indazole] | ≤ 1000 nM |

Reference: patent US20250333406A1, “SULFONYL CYCLIC DERIVATIVES, AND COMPOSITIONS AND METHODS THEREOF” (Lysoway Therapeutics, Inc., priority 2023, published 2025)
